# Literature values as cited in patent US20020137692A1, “Novel compositions of potassium channel openers and protein kinase C inhibitors and use thereof” (Pharmacia AB, priority 2001, published 2002).
# Legend:
# [1] = tested on: hair growth
# [2] = tested on: hair keratinocytes
# [3] = tested on: C3H mouse
Compound,anagen induction in vivo [1],stimulation of hair keratinocytes [2],hair growth stimulation [3]
calphostin C,marked anagen induction,–,–
CCCCCCCCCCCCCCCCOP(=O)([O-])OCC[N+](C)(C)C [hexadecylphosphocholine],marked anagen induction,–,–
Oc1cc(O)c2c(c1)O[C@H](c1ccc(O)c(O)c1)[C@H](O)[C@H]2c1c(O)cc(O)c2c1O[C@H](c1ccc(O)c(O)c1)[C@@H](O)C2 [procyanidin B1],–,stimulation of hair keratinocytes,hair growth stimulation
CCCCCCCCCCCCCCCC(=O)OC(CC(=O)O)C[N+](C)(C)C.[Cl-] (racemic) [palmitoyl-DL-carnitine chloride],marked anagen induction,–,–
Oc1cc(O)c2c(c1)O[C@H](c1ccc(O)c(O)c1)[C@H](O)[C@H]2c1c(O)cc(O)c2c1O[C@H](c1ccc(O)c(O)c1)[C@H](O)C2 [procyanidin B2],marked anagen induction,stimulation of hair keratinocytes,hair growth stimulation
"Oc1cc(O)c2c(c1)O[C@H](c1ccc(O)c(O)c1)[C@@H](O)[C@@H]2c1c(O)cc(O)c2c1O[C@H](c1ccc(O)c(O)c1)[C@@H](O)C2 [Solution B3, procyanidin B3]",–,stimulation of hair keratinocytes,hair growth stimulation
Oc1cc(O)c2c(c1)O[C@H](c1ccc(O)c(O)c1)[C@H](O)[C@H]2c1c(O)cc(O)c2c1O[C@H](c1ccc(O)c(O)c1)[C@H](O)[C@H]2c1c(O)cc(O)c2c1O[C@H](c1ccc(O)c(O)c1)[C@H](O)C2 [procyanidin C1],marked anagen induction,stimulation of hair keratinocytes,hair growth stimulation
polymyxin B sulfate,marked anagen induction,–,–
